Source: US7045305B1, “Methods and reagents for targeting organic compounds to selected cellular locations” (The Regents of the University of California, priority 1998, dated 2006)

How the values were obtained:
[1] = system: CHO cells expressing targeted sFv; test: Site-specific fluorescent labeling of living CHO cells expressing targeted sFv; format: cell-based; details: addition of 1 μM
Description: CHO cells (ATCC CRL 9618) were transfected with plasmids encoding targeted sFv using lipofectamine (Gibco) as is known in the art.
Cells were labeled at two days after transfection, with phOx-fluorophore conjugates by incubation with low concentrations (<100 nM) of the conjugates. […] Images were recorded at room temperature on a K2 BIO microscope (Technical Instruments) equipped with a 60× PlanApo objective (Nikon, N. A. 1.4), coaxial-confocal attachment, and cooled CCD camera (Photometrics). Dual-excitation ratio images of fluorescein were acquired using 440 and 490 nm excitation filters and a 520 nm long pass emission filter (Chroma). Continuous recordings of the fluorescence time course were obtained on a Nikon Diaphot epifluorescence microscope equipped with a 100× PlanApo objective (Nikon, N. A. 1.4), a photomultiplier using a 530 nm bandpass emission filter and an optical filter changer (Model 10-C, Sutter Instrument Co.) containing 440 and 490 nm excitation filters. Cuvette fluorescence measurements were conducted on an SLM 8000c fluorometer (SLM Aminco). Spectra were recorded with 4 nm slit widths; time courses were acquired with 495 nm excitation and a 510 mm longpass emission filter.
The various sFv targeting constructs and phOx conjugates were studied in CHO cells. […] For quantitative measurement of organelle pH, the free dye was washed out of the bathing solutions.

[2] = system: vacuolar H+ pump; test: Golgi lumenal pH time course with Golgi-targeted phOx-fluorescein; format: cell-based; details: 100 nM, Golgi pH initially ~6.3, individual cells
Description: Cells were labeled at two days after transfection, with phOx-fluorophore conjugates by incubation with low concentrations (<100 nM) of the conjugates. […] Images were recorded at room temperature on a K2 BIO microscope (Technical Instruments) equipped with a 60× PlanApo objective (Nikon, N. A. 1.4), coaxial-confocal attachment, and cooled CCD camera (Photometrics). Dual-excitation ratio images of fluorescein were acquired using 440 and 490 nm excitation filters and a 520 nm long pass emission filter (Chroma). Continuous recordings of the fluorescence time course were obtained on a Nikon Diaphot epifluorescence microscope equipped with a 100× PlanApo objective (Nikon, N. A. 1.4), a photomultiplier using a 530 nm bandpass emission filter and an optical filter changer (Model 10-C, Sutter Instrument Co.) containing 440 and 490 nm excitation filters. Cuvette fluorescence measurements were conducted on an SLM 8000c fluorometer (SLM Aminco). Spectra were recorded with 4 nm slit widths; time courses were acquired with 495 nm excitation and a […] longpass emission filter.
Organelle-specific sFv targeting was applied to measure Golgi pH using phOx-fluorescein as the probe. […] The dependence of the fluorescence ratio on pH was measured for Golgi and plasma membrane-expressed sFv (FIG. 4A). […]

| SMILES | effect on phOx-Bodipy staining of Golgi (competition) [1] | change of Golgi pH after addition [2] |
| --- | --- | --- |
| O=C1OC(c2ccccc2)=NC1=CNCCO [phOx-ethanolamine] | reversed | – |
| CO/C1=C\C(C)=C\[C@@H](C)[C@@H](O)[C@@H](C)C/C(C)=C/C=C/[C@H](OC)[C@@H]([C@@H](C)[C@@H](O)[C@H](C)[C@@]2(O)C[C@@H](O)[C@H](C)[C@@H](C(C)C)O2)OC1=O [bafilomycin A1] | – | promptly alkalinized |
